According to patent EP1948196B1, “USE OF TETRAORGANOSILICON COMPOUNDS” (Salama, Zoser B., priority 2005, dated 2007):
Values after ≈ are worked out from the molar mass of the structure shown. Like-named read-outs stand apart in the source and are kept apart here. Numbered stars: 1 amine (or outer) side, 2 acyl side, 3 side chain; on linkers, the order of the positions; unused ones are H or OH. Bridge positions count the residues as written; N and C are the ends. Peptide text beside a SMILES is read from it. I, II: the chains in the order shown. X2 = c1ccc([Si](O[*:1])(O[*:2])c2ccccc2)cc1

How the values were obtained:
Hepatitis-Viren = experiment: Antiviral effect; conditions: in particular as vesicles holding antisense constructs
Lymphome = experiment: Effect on lymphomas
[1] = test system: BxPC3 (pankreatisches Adenokarzinom); experiment: MTT test, triplicate, two-fold dilutions; format: cell-based; conditions: Homo sapiens
Experimental: (§1) Die Silan wurden in Ethanol aufgelöst und in Zellkulturmedien in Konzentrationen von bis zu 500 µg/ml resuspendiert. Es wurden MTT Tests in dreifacher Ausführung durchgeführt, für welche doppelte Lösungen (7 Schritte) und colo205 (Kofon-Karzinom), BxPC3 (pankreatisches Adenokarzinom) sowie T47D (Brustkrebs) benutzt wurden.

T47D (Brustkrebs) = experiment: MTT test, triplicate, two-fold dilutions; format: cell-based; conditions: Homo sapiens, T47D, read-out: IC50 T47D
Experimental: as §1

colo205 (Kofon-Karzinom) = experiment: MTT test, triplicate, two-fold dilutions; format: cell-based; conditions: Homo sapiens
Experimental: as §1

Normale Zellen = experiment: Mean IC50 over all normal cell lines; format: cell-based; conditions: read-out: IC50 Normale Zellen (Durchschnitt ± SD)
Experimental: (§2) Die Silane 1, 5, 9, 10, 11, 13, 15, 16 wurden in Ethanol gelöst und in MTT Assays in einer anfänglichen Konzentration von 200 µg/ml (5 Lösungsschritte 200 - 12.5 µg/ml) verwendet. Die Platten wurde für eine Dauer.von 4 Tagen inkubiert und die Entwicklungsfähigkeit mithilfe des EZ4U Test bestimmt. Die IC50 Werte wurden ausgehend von Dosierungs-Reaktions-Linien berechnet Zelllinien: Colo 205 and HT29 - Kolonkarzinom; BxPC3 and MIAPaCa2 - Pankreaskrebs; CRO2B - karzinoid, A431 Epidermalkarzinom; normale Zellen: WI38 - humane embryonale Fibroblasten; NIH3T3 - mausartige Fibroblasten; IEC6 - mausartige Enterozyten.
(§3) Mittelwerte-IC50 für alle Krebs- oder normalen Zelllinien: […]

[2] = test system: Kälber-Aortenendothelzellinie BKEz-7; experiment: tissue or blood; format: cell-based
Description: Prüfung auf zytotoxisches Potential an Kälber-Aortenendothelzellinie BKEz-7
Als Marker für eine zytotoxische Wirkung wird bei Zellen der charakterisierten Kälber-Aortenendothelzellinie BKEz-7 die Hemmkonzentration ermittelt, bei der eine 50%-ige Hemmung der Zellproliferation erfolgt (im Vergleich zu Kontrollkulturen ohne Zusatz eines Zellinhibitors). Die resultierende Reduzierung der Zellzahl um 50% wird als IC 50 ausgedrückt. Die getesteten Silanverbindungen wurden als Suspensionen auf die Kulturen gegeben und 48 Stunden bei 37°C inkubiert. Zusätzlich erfolgten morphologische Kontrollen und Vitalitätsbestimmungen mittels dem Neutralrot-Test. Mit Ausnahme des Di(dodecanoyloxy)dimethylsilans standen alle Ergebnisse der morphologischen Untersuchungen in guter Übereinstimmung. […]

Krebszellen = experiment: Mean IC50 over all cancer cell lines; format: cell-based; conditions: read-out: IC50 Krebszellen (Durchschnitt ± SD)
Experimental: as §2, §3

[3] = test system: WI38 - humane embryonale Fibroblasten; experiment: MTT assay / EZ4U test, 4 days; format: cell-based; conditions: Homo sapiens
Experimental: as §2

BxPC3 - Pankreaskrebs = experiment: MTT assay / EZ4U test, 4 days; format: cell-based; conditions: Homo sapiens
Experimental: as §2

CRO2B - karzinoid = experiment: MTT assay / EZ4U test, 4 days; format: cell-based; conditions: read-out: IC50 CR02B
Experimental: as §2

MIAPaCa2 - Pankreaskrebs = experiment: MTT assay / EZ4U test, 4 days; format: cell-based; conditions: Homo sapiens
Experimental: as §2

[4] = test system: NIH3T3 - mausartige Fibroblasten; experiment: MTT assay / EZ4U test, 4 days; format: cell-based; conditions: Mus musculus
Experimental: as §2

A431 Epidermalkarzinom = experiment: MTT assay / EZ4U test, 4 days; format: cell-based; conditions: Homo sapiens
Experimental: as §2

HT29 - Kolonkarzinom = experiment: MTT assay / EZ4U test, 4 days; format: cell-based; conditions: Homo sapiens
Experimental: as §2

[5] = test system: IEC6 - mausartige Enterozyten; experiment: MTT assay / EZ4U test, 4 days; format: cell-based; conditions: Rattus norvegicus
Experimental: as §2

Colo 205 - Kolonkarzinom = experiment: MTT assay / EZ4U test, 4 days; format: cell-based; conditions: Homo sapiens
Experimental: as §2

Colo205 Kolonkarzinom = experiment: subG1 apoptotic fraction, propidium iodide, flow cytometry; format: cell-based; conditions: 50 µg/ml, 4 Tage
Experimental: (§4) Die Zellen (IEC6 mausartige Enterozyten; Panc1 Pankreaskrebszellen; Colo205 Kolonkarzinom) wurden mit 50 µg/ml Silanen inkubiert und nach 4-tägiger Aussetzung auf DNA eingefärbt (Propidiumiodid). Die SubG1 Zellteilung wurde mittels Durchflusscytometrie bestimmt.

[6] = test system: IEC6 mausartige Enterozyten; experiment: as above; format: cell-based; conditions: 50 µg/ml, 4 Tage
Experimental: as §4

[7] = test system: Panc1 Pankreaskrebszellen; experiment: as above; format: cell-based; conditions: 50 µg/ml, 4 Tage
Experimental: as §4

Basalzellkarzinome = experiment: Effect on basal cell carcinomas
Maus = experiment: Pharmacological observation in the mouse (central, vegetative and toxic effects, acute toxicity); format: in vivo
Description: Pharmakologische Untersuchungen an der Maus
Die Verbindungen wurden an der Maus auf zentrale, vegetative und toxische Effekte geprüft. Durch systemische Einzelbeobachtungen sind neben der akuten Toxizität (orienberende letale Dosis, oLD) zentrale und vegetative Wirkungen der Testsubstanzen, insbesondere Effekte auf die Motorik und das Reaktionsvermögen, die Haut- und Rektaltemperatur sowie auf die Pupillenmotorik erfasst worden. Die getesteten Dosierungen betrugen 5 •10^-4, 1 • 10^-3 und 5 • 10^-3 mol/kg Körpergewicht Letale Wirkungen konnten bei keiner der Verbindungen beobachtet werden. Die oLD lag für Di(tetradecanoyloxy)dimethylsilan und Di(octadecanoyloxy)dimethylsilan unter 1 • 10^-3 mol/kg Körpergewicht für alle übrigen Verbindungen unter 5 • 10^-3 mollkg Körpergewicht.

Adenokarzinom-Gewebe = experiment: Effect against adenocarcinoma tissue, inhibition of metastasis
Rhino-Viren = experiment: Antiviral effect; conditions: in particular as vesicles holding antisense constructs
Osteosarkome = experiment: Effect on osteosarcomas
[8] = COLO 205, read-out: IC50 Colo205

`C[C@H](N)C(=O)N[C@@H](C)C(=O)N[C@@H](C)C(=O)N[C@@H](C)C(=O)O[Si](OC(=O)[C@H](C)NC(=O)[C@H](C)NC(=O)[C@H](C)NC(=O)[C@H](C)N)(c1ccccc1)c1ccccc1` [Diphenyl bis(tetraalanyl)silylester] was tested, and the “Wirkung gegen Hepatitis-Viren” value (Hepatitis-Viren) was “zeigen eine Wirkung” and the “Wirkung auf Lymphome” value (Lymphome) was “zeigen eine Wirkung”.
With `CCCCCCCCCCCCCCCCCC(=O)O[Si](OC(=O)CCCCCCCCCCCCCCCCC)(c1ccccc1)c1ccccc1` [Si10, Di (octadecanoyloxy) diphenylsilan] the IC50 ([1]; BXPC-3, up to 500 µg/ml, read-out: IC50 BxPC3) was 15 µg/mL (≈ 20 µM), the IC50 (T47D (Brustkrebs); up to 500 µg/ml) was 15 µg/mL (≈ 20 µM) and the IC50 (colo205 (Kofon-Karzinom); COLO 205, up to 500 µg/ml, read-out: IC50 Colo205) was 60 µg/mL (≈ 80.1 µM). The IC50 (Normale Zellen; mean over normal cell lines) was 20.4 µg/mL (≈ 27.2 µM), the “Bedenkliche Toxizität” value [2] was “-” and the IC50 ([2]; suspensions, 48 Stunden bei 37°C) was 84 µM. It also gave an IC50 (Krebszellen; mean over cancer cell lines) of 21.9 µg/mL (≈ 29.2 µM), an IC50 ([3]; WI-38, 200 - 12.5 µg/ml, 4 Tage, read-out: IC50 WI38) of 21.8 µg/mL (≈ 29.1 µM) and an IC50 (BxPC3 - Pankreaskrebs; BXPC-3, 200 - 12.5 µg/ml, 4 Tage, read-out: IC50 BxPC3) of 20 µg/mL (≈ 26.7 µM). The IC50 (CRO2B - karzinoid; 200 - 12.5 µg/ml, 4 Tage) was 18.5 µg/mL (≈ 24.7 µM), the IC50 (MIAPaCa2 - Pankreaskrebs; MIA PaCa-2, 200 - 12.5 µg/ml, 4 Tage, read-out: IC50 MlAPaCa2) was 37 µg/mL (≈ 49.4 µM) and the IC50 ([4]; NIH3T3, 200 - 12.5 µg/ml, 4 Tage, read-out: IC50 NIH3T3) was 22.2 µg/mL (≈ 29.6 µM). For the same compound, the IC50 (A431 Epidermalkarzinom; A-431, 200 - 12.5 µg/ml, 4 Tage, read-out: IC50 A431) was 21.9 µg/mL (≈ 29.2 µM), the IC50 (HT29 - Kolonkarzinom; HT-29, 200 - 12.5 µg/ml, 4 Tage, read-out: IC50 HT29) was 27.5 µg/mL (≈ 36.7 µM) and the IC50 ([5]; IEC-6, 200 - 12.5 µg/ml, 4 Tage, read-out: IC50 IEC6) was 17.2 µg/mL (≈ 23 µM). For the same compound, the IC50 (Colo 205 - Kolonkarzinom; COLO 205, 200 - 12.5 µg/ml, 4 Tage, read-out: IC50 Colo205) was 30.6 µg/mL (≈ 40.8 µM), the “subG1 apoptotische Zellteilung Colo205” value (Colo205 Kolonkarzinom) was 43,9 ± 1,41 and the “subG1 apoptotische Zellteilung IEC6” value [6] was 13,4 ± 0,42. For the same compound, the “subG1 apoptotische Zellteilung Panc1” value [7] was 60,7 ± 0,2, the “Wirkung auf Basalzellkarzinome” value (Basalzellkarzinome) was “zeigen eine Wirkung” and the “zentrale, vegetative und toxische Effekte (Verhaltensänderungen)” value (“zentrale … (Verhaltensänderungen)” below) (Maus; 1•10^-3 mol/kg) was “schwache Ataxie, Hyperaktivität und Piloerektion”. The “zentrale … (Verhaltensänderungen)” value (Maus; 5•10^-3 mol/kg) was “schwache Ataxie” and the “zentrale … (Verhaltensänderungen)” value (Maus; 5•10^-4 mol/kg) was “keine Verhaltensänderungen”.
In the case of Diphenyl bis(hexaalanyl)silylester, the “Wirkung gegen Hepatitis-Viren” value (Hepatitis-Viren) is reported as “zeigen eine Wirkung” and the “Wirkung auf Lymphome” value (Lymphome) is reported as “zeigen eine Wirkung”.
`CCCCCCCCCCCC(=O)O[Si](OC(=O)CCCCCCCCCCC)(C(C)C)C(C)C` [Di(dodecanoyloxy)diisopropylsilan] was tested, and the “Wirkung gegen Adenokarzinom-Gewebe, insbesondere inhibierende Wirkung auf die Metastasierung” value (Adenokarzinom-Gewebe) was “haben eine Wirkung”.
For `CCCCCCCCCCCCCCC(=O)O[Si](OC(=O)CCCCCCCCCCCCCC)(c1ccccc1)c1ccccc1` [Si5, Di (pentadecanoyloxy) diphenylsilan], the “Wirkung gegen Rhino-Viren” value (Rhino-Viren) was “zeigen eine Wirkung”, the IC50 ([1]; BXPC-3, read-out: IC50 BxPC3) was 60 µg/mL (≈ 90.2 µM) and the IC50 (T47D (Brustkrebs)) was 20 µg/mL (≈ 30.1 µM). The IC50 (colo205 (Kofon-Karzinom); [8]) was 70 µg/mL (≈ 105 µM), the “Wirkung auf Osteosarkome” value (Osteosarkome) was “zeigen eine Wirkung” and the IC50 (Normale Zellen) was 41.3 µg/mL (≈ 62.1 µM). The IC50 (Krebszellen) was 34 µg/mL (≈ 51.1 µM), the IC50 ([3]; WI-38, read-out: IC50 WI38) was 36.5 µg/mL (≈ 54.9 µM) and the IC50 (BxPC3 - Pankreaskrebs; BXPC-3, read-out: IC50 BxPC3) was 25 µg/mL (≈ 37.6 µM). The IC50 (CRO2B - karzinoid) was 35 µg/mL (≈ 52.6 µM), the IC50 (MIAPaCa2 - Pankreaskrebs; MIA PaCa-2, read-out: IC50 MlAPaCa2) was 38.5 µg/mL (≈ 57.9 µM) and the IC50 ([4]; NIH3T3, read-out: IC50 NIH3T3) was 55 µg/mL (≈ 82.7 µM). For the same compound, the IC50 (A431 Epidermalkarzinom; A-431, read-out: IC50 A431) was 36.3 µg/mL (≈ 54.6 µM), the IC50 (HT29 - Kolonkarzinom; HT-29, read-out: IC50 HT29) was 40 µg/mL (≈ 60.1 µM) and the IC50 ([5]; IEC-6, read-out: IC50 IEC6) was 32.5 µg/mL (≈ 48.9 µM). The IC50 (Colo 205 - Kolonkarzinom; [8]) was 43.8 µg/mL (≈ 65.9 µM), the “subG1 apoptotische Zellteilung Colo205” value (Colo205 Kolonkarzinom) was 3,4 ± 0,28 and the “subG1 apoptotische Zellteilung IEC6” value [6] was 6,35 ± 0,63. For the same compound, the “subG1 apoptotische Zellteilung Panc1” value [7] was 52,8 ± 3,4.
For `C[C@H](N)C(=O)N[C@@H](C)C(=O)N[C@@H](C)C(=O)N[C@@H](C)C(=O)N[C@@H](C)C(=O)N[C@@H](C)C(=O)N[C@@H](C)C(=O)N[C@@H](C)C(=O)O[Si](OC(=O)[C@H](C)NC(=O)[C@H](C)NC(=O)[C@H](C)NC(=O)[C@H](C)NC(=O)[C@H](C)NC(=O)[C@H](C)NC(=O)[C@H](C)NC(=O)[C@H](C)N)(c1ccccc1)c1ccccc1` [Diphenyl bis(octaalanyl)silylester] (I: H-AAAAAAAA / II: H-AAAAAAAA; linker I:C-II:C via X2), the “Wirkung gegen Hepatitis-Viren” value (Hepatitis-Viren) was “zeigen eine Wirkung” and the “Wirkung auf Lymphome” value (Lymphome) was “zeigen eine Wirkung”.
